Data from article PMC5603227 (ChemMedChem, 2017).
Values after ≈ are worked out from the molar mass of the structure shown.

Legend:
Type in all cases: cell-based, Mycobacterium tuberculosis
[1] = test system: Rifampicin resistant strain derived from H37Rv Mtb, ropB mutant (S522L)
[2] = test system: Fluoroquinolone resistant strain derived from H37Rv Mtb, gyrA mutant (D94N)
[3] = test system: Rifampicin resistant strain ACTCC35838; assay: microbe, parasite or virus in culture; settings: for MIC: Mycobacterium tuberculosis, ACTCC35838, read-out: MIC RIF res2
[4] = test system: Isoniazid resistant strain ACTCC35822; assay: microbe, parasite or virus in culture; settings: for MIC: Mycobacterium tuberculosis, ACTCC35822, read-out: MIC INH res2
[5] = test system: Isoniazid resistant strain derived from H37Rv Mtb, katG mutant (Y155*)

| Compound | MIC RIF res1 [1] [µM] | MIC FQ res [2] [µM] | MIC [3] [µM] | MIC [4] [µM] | MIC INH res1 [5] [µM] | MIC RIF res2 ([3]; ACTCC35838) [µM] | MIC INH res2 ([4]; ACTCC35822) [µM] |
| --- | --- | --- | --- | --- | --- | --- | --- |
| Cc1ccn2c(C(=O)NCc3ccc(S(F)(F)(F)(F)F)cc3)c(C)nc2c1 [Compound 13, 2,7-Dimethyl-N-(4-(pentafluoro-λ^6-sulfanyl)benzyl)imidazo[1,2-a]pyridine-3-carboxamide] | 0.079 (≈ 0.032 µg/mL) | 0.36 (≈ 0.146 µg/mL) | 0.52 (≈ 0.211 µg/mL) | 0.24 (≈ 0.0973 µg/mL) | 0.070 (≈ 0.0284 µg/mL) |  |  |
| Cc1ccn2c(C(=O)NCc3cccc(S(F)(F)(F)(F)F)c3)c(C)nc2c1 [Compound 14, 2,7-Dimethyl-N-(3-(pentafluoro-λ^6-sulfanyl)benzyl)imidazo[1,2-a]pyridine-3-carboxamide] | 1.3 (≈ 0.527 µg/mL) | 2.5 (≈ 1.01 µg/mL) | 0.13 (≈ 0.0527 µg/mL) | 4 (≈ 1.62 µg/mL) | 3.4 (≈ 1.38 µg/mL) |  |  |
| Cc1cn2c(C(=O)NCc3ccc(S(F)(F)(F)(F)F)cc3)c(C)nc2s1 [Compound 19, 2,6-Dimethyl-N-(4-(pentafluoro-λ^6-sulfanyl)benzyl)imidazo[2,1-b]thiazole-5-carboxamide] | 0.26 (≈ 0.107 µg/mL) | 0.33 (≈ 0.136 µg/mL) | 0.64 (≈ 0.263 µg/mL) | 0.39 (≈ 0.16 µg/mL) | 0.60 (≈ 0.247 µg/mL) |  |  |
| CO[C@H]1/C=C/O[C@@]2(C)Oc3c(C)c(O)c4c(O)c(c(/C=N/N5CCN(C)CC5)c(O)c4c3C2=O)NC(=O)/C(C)=C\C=C\[C@H](C)[C@H](O)[C@@H](C)[C@@H](O)[C@@H](C)[C@H](OC(C)=O)[C@@H]1C [RIF, Rifampicin, reference compound] | 3.2 (≈ 2.63 µg/mL) | 0.043 (≈ 0.0354 µg/mL) | > 50 | 0.013 (≈ 0.0107 µg/mL) | 0.027 (≈ 0.0222 µg/mL) |  |  |
| Cc1ccc2nc(C)c(C(=O)NCc3ccc(S(F)(F)(F)(F)F)cc3)n2c1 [Compound 15, 2,6-Dimethyl-N-(4-(pentafluoro-λ^6-sulfanyl)benzyl)imidazo[1,2-a]pyridine-3-carboxamide] | 0.0060 (≈ 0.00243 µg/mL) | 0.021 (≈ 0.00851 µg/mL) | 0.016 (≈ 0.00649 µg/mL) | 0.011 (≈ 0.00446 µg/mL) | 0.044 (≈ 0.0178 µg/mL) |  |  |
| CCc1nc2ccc(Cl)cn2c1C(=O)NCc1cccc(S(F)(F)(F)(F)F)c1 [Compound 18, 6-Chloro-2-ethyl-N-(3-(pentafluoro-λ^6-sulfanyl)benzyl)imidazo[1,2-a]pyridine-3-carboxamide] | 1.5 (≈ 0.66 µg/mL) | 2.9 (≈ 1.28 µg/mL) | 0.5 (≈ 0.22 µg/mL) | 2.7 (≈ 1.19 µg/mL) | 2.9 (≈ 1.28 µg/mL) |  |  |
| CCc1nc2ccc(Cl)cn2c1C(=O)NCc1ccc(S(F)(F)(F)(F)F)cc1 [Compound 17, 6-Chloro-2-ethyl-N-(4-(pentafluoro-λ^6-sulfanyl)benzyl)imidazo[1,2-a]pyridine-3-carboxamide] | 0.0089 (≈ 0.00391 µg/mL) | 0.083 (≈ 0.0365 µg/mL) | 0.022 (≈ 0.00968 µg/mL) | 0.021 (≈ 0.00924 µg/mL) | 0.051 (≈ 0.0224 µg/mL) |  |  |
| Levoflaxacin [reference compound] | 3.43 | 91 |  |  | 3.97 | 3.83 | 5.83 |
| NNC(=O)c1ccncc1 [INH, Isoniazid, reference compound] | 0.160 (≈ 0.0219 µg/mL) | 0.34 (≈ 0.0466 µg/mL) | 0.37 (≈ 0.0507 µg/mL) | > 200 | >200 |  |  |
| Cc1ccc2nc(C)c(C(=O)NCc3cccc(S(F)(F)(F)(F)F)c3)n2c1 [Compound 16, 2,6-Dimethyl-N-(3-(pentafluoro-λ^6-sulfanyl)benzyl)imidazo[1,2-a]pyridine-3-carboxamide] | 0.35 (≈ 0.142 µg/mL) | 2.7 (≈ 1.09 µg/mL) | 7.2 (≈ 2.92 µg/mL) | 2.4 (≈ 0.973 µg/mL) | 3.1 (≈ 1.26 µg/mL) |  |  |
